Measured values published in patent US9635879B2, “Sweetener” (Tate & Lyle Ingredients Americas LLC, priority 2013, dated 2017).
Marks after values point to notes of the source that are not given here.

Assays:
[1] = Round table sensory evaluation with test panelists: sucrose equivalent value (SEV) against sucrose reference samples; format: in vivo; conditions: for Sweetness (mean SEV), two-way ANOVA, grouping (Duncan): second Sweetness line, superscripts = Duncan grouping, level of significance 5%
Protocol: Round table evaluations were performed with test panelists. Equal sweet 10 SEV concentrations in neutral pH water were made for allulose, fructose and sucralose, as well as a composition comprising allulose, fructose and sucralose. The components of the test compositions are described in the below tables. The mixed compositions were calculated using the Beidler mixture equation for the sweeteners. The Beidler mixture equation for sweeteners is as follows: […]
The concentration of each component in the mixture in ppm is divided by SEV (c/R) and is plotted against concentration, c. The slope of the linear regression is the maximum SEV (Rmax). The y-intercept of the linear regression multiplied by Rmax is the half-maximal sweetness concentration, 1/K. Rmax and 1/K are the two parameters used in the Beidler equation.
The equal-molar mixture was tested against reference samples for the panelists to determine SEV values. […] The test samples were served in 2 ounce (approximately 60 ml) soufflé cups coded with 3-digit codes at room temperature. A two minute wait period between samples was enforced. Water and unsalted crackers was available for the panelists to clear their palates before and during testing. EyeQuestion was used for ballot development and recording of results. Results were collected in EyeQuestion for calculating approximate SEV level of each test sample. The test products analyzed in this experiment are described below in Table 1.

[2] = times as sweet as sucrose; cited from earlier work
[3] = neutral pH water, room temperature, samples made to equal sweet 10 SEV, references 4-14% sucrose

Compound	Sweetness (mean SEV), two-way ANOVA, level of significance (Duncan) ([1]; first Sweetness line, superscripts = level of significance (Duncan))	Mean sucrose equivalent value (SEV) (Mean 1) [1, 3]	Median sucrose equivalent value (SEV) (Median 1) [1, 3]	Sweetness (mean SEV), two-way ANOVA, grouping (Duncan) [1]	Sweetness relative to sucrose [2]
OC[C@H]1O[C@H](O[C@]2(CCl)O[C@H](CCl)[C@@H](O)[C@@H]2O)[C@H](O)[C@@H](O)[C@H]1Cl [Sucralose, sucralose]	9.29	9.286	10	9.29^c	approximately 600 times
O=C(CO)[C@@H](O)[C@H](O)[C@H](O)CO [Fructose, fructose]		10.14		10.14^b-c	
O=C(CO)C(O)C(O)C(O)CO (stereo not drawn) [Allulose, allulose]		10.14		10.14^b-c	
